For one assay, the target named is PI3K gamma (Homo sapiens (Human), UniProt P48736). Kind of assay: Biochemical assay for PI3Kgamma (Adapta TR-FRET format). The following applies: enzymatic assay. An excerpt: For the enzymatic assays, the preparation of PI3K gene constructs, protein expression and purification for HTS are described in WO2012/004299. […] The TR-FRET Adapta™ Universal Kinase Assay Kit was purchased from Invitrogen Corporation (Carlsbad/CA, USA) (Cat. No. PV5099). The kit contains the following reagents: Adapta Eu-anti-ADP Antibody (Europium labeled anti-ADP antibody in HEPES buffered saline, Cat. No. PV5097), Alexa Fluor® 647-labeled ADP tracer (Alexa Fluor® 647-labeled ADP tracer in HEPES buffered saline, Cat. No. PV5098), proprietary TR-FRET dilution buffer pH 7.5 (Cat. No. PV3574). PIK3CD substrate Phosphatidylinositol was obtained from Invitrogen (vesicules consisting of 2 mM PI in 50 mM HEPES pH7.5; Cat. No. PV5371). PIK3CG substrate Phosphatidylinositol-4,5-bisphosphate (PIP(4,5)2 was obtained from Invitrogen (PIP2:PS large unilamellar vesicules consisting of 1 mM PI P2: 19 mM PS in 50 mM HEPES pH7.5, 3 mM MgCl2, 1 mM EGTA; Cat. No. PV5100). Time-Resolved Fluorescence Resonance Energy Transfer (TR-FRET) is a technology based on energy transfer between two adjacent dyes, from an excited electron in one dye (the donor) to an electron of an adjacent dye (the acceptor) through resonance, then released as a photon. This energy transfer is detected by an increase in the fluorescence emission of the acceptor, and a decrease in the fluorescence emission of the donor. TR-FRET assays for protein kinases use a long-lifetime lanthanide Terbium or Europium chelates as the donor species which overcome interference from compound autofluorescence or light scatter from precipitated compounds, by introducing a delay after excitation by a flashlamp excitation source. Results are often expressed as a ratio of the intensities of the acceptor and donor fluorophores. The ratiometric nature of such a value corrects for differences in assay volumes between wells, as well as corrects for quenching effects due to colored compounds. The Adapta™ assay can be divided into two phases: a kinase reaction phase and an ADP detection phase. In the kinase reaction phase, all kinase reaction components are added to the well and the reaction is allowed to incubate for a set period of time specific for each kinase. After the reaction, a detection solution of Eu-labeled anti-ADP antibody, Alexa Fluor® 647-labeled ADP tracer, and EDTA (to stop the kinase reaction) are added to the assay well. ADP formed by the kinase reaction will displace the Alexa Fluor® 647-labeled ADP tracer from the antibody, resulting in a decrease in TR-FRET signal. In the presence of an inhibitor, the amount of ADP formed by the kinase reaction is reduced, and the resulting intact antibody-tracer interaction maintains a high TR-FRET signal. In the Adapta™ assay, the donor (Europium-anti-ADP antibody) is excited at 340 nm and will transfer its energy to the acceptor (Alexa Fluor® 647-labeled ADP tracer). The emission from the Alexa Fluor® 647 can be monitored with a filter centered at 665 nm because it is located between the emission peaks of the donor, which is measured at 615/620 nm. 50 nL of compound dilutions were dispensed onto white 384-well small volume polystyrene plate as described in section 2.2. Then 5 μL of PI3Kgamma and PI3Kdelta and lipid substrate (PI or PIP2:PS) followed by 5 μL of ATP (final assay volume 10 μL) are incubated at RT. […] Reactions were stopped with 5 μL of a mixture of EDTA containing the Eu-labeled anti-ADP antibody and the Alexa Fluor® 647-labeled ADP tracer in TR-FRET dilution buffer (proprietary to IVG). Plates are read 15 to 60 mins later in a Synergy2 reader using an integration time of 0.4 seconds and a delay of 0.05 seconds. […] The control for the 0% inhibition was given by the solvent vehicle of the compounds (90% DMSO in H2O). Data are analyzed using Excel fit software or Graphpad Prism. EC50 values were derived by fitting a sigmoidal dose-response curve to a plot of assay readout over inhibitor concentration. […]
PI3K gamma, sequence (P48736 whole entry): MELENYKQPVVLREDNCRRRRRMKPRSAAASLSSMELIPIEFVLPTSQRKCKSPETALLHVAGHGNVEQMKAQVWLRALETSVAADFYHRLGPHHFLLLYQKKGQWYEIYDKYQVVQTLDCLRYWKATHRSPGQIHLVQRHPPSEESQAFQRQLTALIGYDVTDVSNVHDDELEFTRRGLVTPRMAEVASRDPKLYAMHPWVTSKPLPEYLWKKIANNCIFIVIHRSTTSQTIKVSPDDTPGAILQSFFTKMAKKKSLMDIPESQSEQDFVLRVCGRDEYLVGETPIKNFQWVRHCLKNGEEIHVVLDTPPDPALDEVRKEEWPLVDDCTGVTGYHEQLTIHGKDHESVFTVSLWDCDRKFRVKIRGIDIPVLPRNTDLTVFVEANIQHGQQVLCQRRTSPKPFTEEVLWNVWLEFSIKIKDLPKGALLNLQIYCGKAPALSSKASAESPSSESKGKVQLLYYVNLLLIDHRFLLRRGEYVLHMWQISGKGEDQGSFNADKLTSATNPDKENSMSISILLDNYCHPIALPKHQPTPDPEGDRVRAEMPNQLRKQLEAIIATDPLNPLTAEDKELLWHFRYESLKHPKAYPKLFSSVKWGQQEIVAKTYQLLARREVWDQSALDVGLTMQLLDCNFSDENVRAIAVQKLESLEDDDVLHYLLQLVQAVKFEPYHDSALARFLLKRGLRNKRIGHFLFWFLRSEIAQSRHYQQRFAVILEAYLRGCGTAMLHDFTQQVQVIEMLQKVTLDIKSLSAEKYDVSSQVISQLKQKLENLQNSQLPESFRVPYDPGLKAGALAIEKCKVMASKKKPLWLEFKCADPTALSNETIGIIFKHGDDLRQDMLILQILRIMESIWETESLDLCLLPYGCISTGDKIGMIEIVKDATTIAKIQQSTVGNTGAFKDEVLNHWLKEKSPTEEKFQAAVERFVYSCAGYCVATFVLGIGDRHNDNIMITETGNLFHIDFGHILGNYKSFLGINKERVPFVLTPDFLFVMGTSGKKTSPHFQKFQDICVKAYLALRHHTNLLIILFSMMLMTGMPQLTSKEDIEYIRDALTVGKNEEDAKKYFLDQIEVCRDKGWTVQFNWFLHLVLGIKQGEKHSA
A general note: In TR-FRET formats the signal depends on donor and acceptor labels being close together.

A further assay addresses PI3K alpha (Homo sapiens (Human), UniProt P42336). Nature of the assay: Biochemical assay for PI3Kalpha (Kinase-Glo format). The following applies: enzymatic assay. How it is done: 1.1 Generation of Gene Constructs, Protein Expression and Purification
For the enzymatic assays, the preparation of PI3K gene constructs, protein expression and purification for HTS are described in WO2012/004299.
1.2 Biochemical Assays for PI3Kalpha, PI3Kbeta (Kinase-Glo Format)
The kinase reaction is performed in a final volume of 50 μl per well of a half area COSTAR, 96 well plate. The final concentrations of ATP and phosphatidyl inositol in the assay are 5 μM and 6 μg/mL, respectively. The reaction is started by the addition of PI3 kinase, e.g. PI3 kinase α.
The components of the assay are added per well as follows: • 10 μl test compound in 5% DMSO per well in […]. • Total activity is determined by addition 10 μl of 5% vol/vol DMSO in the first 4 wells of column 1 and the last 4 wells of column 12. • The background is determined by addition of 10 μM control compound to the last 4 wells of column 1 and the first 4 wells of column 12. • 2 mL ‘Assay mix’ are prepared per plate: • 1.912 mL of HEPES assay buffer • 8.33 μl of 3 mM stock of ATP giving a final concentration of 5 μM per well • 1 μl of [^33P]ATP on the activity date giving 0.05 μCi per well • 30 μl of 1 mg/mL PI stock giving a final concentration of 6 μg/mL per well • 5 μl of 1 M stock MgCl2 giving a final concentration of 1 mM per well • 20 μl of the assay mix are added per well. • 2 mL ‘Enzyme mix’ are prepared per plate (x* μl PI3 kinase p110α in 2 mL of kinase buffer). The ‘Enzyme mix’ is kept on ice during addition to the assay plates. * The volume of enzyme is dependent on the enzymatic activity of the batch in use. • 20 μl ‘Enzyme mix’ are added/well to start the reaction. • The plate is then incubated at room temperature for 90 minutes. • The reaction is terminated by the addition of 50 μl WGA-SPA bead (wheat germ agglutinin-coated Scintillation Proximity Assay beads) suspension per well. • The assay plate is sealed using TopSeal-S (heat seal for polystyrene microplates, PerkinElmer LAS [Deutschland] GmbH, Rodgau, Germany) and incubated at room temperature for at least 60 minutes. • The assay plate is then centrifuged at 1500 rpm for 2 minutes using the Jouan bench top centrifuge (Jouan Inc., Nantes, France). • The assay plate is counted using a Packard TopCount, each well being counted for 20 seconds.
In a more preferred assay, the kinase reaction is performed in a final volume of 10 μl per well of a low volume non-binding CORNING, 384 well black plate (Cat. No. #3676). The final concentrations of ATP and phosphatidyl inositol (PI) in the assay are 1 μM and 10 μg/mL, respectively. The reaction is started by the addition of ATP.
The components of the assay are added per well as follows: […]

Experimental findings from patent US9840498B2, “Substituted quinazolin-4-one derivatives” (NOVARTIS AG, priority 2013, dated 2017) are described below.

As a reminder, the IC50 is the concentration that inhibits the measured activity by half.

PI3K alpha, sequence (P42336 21-1068): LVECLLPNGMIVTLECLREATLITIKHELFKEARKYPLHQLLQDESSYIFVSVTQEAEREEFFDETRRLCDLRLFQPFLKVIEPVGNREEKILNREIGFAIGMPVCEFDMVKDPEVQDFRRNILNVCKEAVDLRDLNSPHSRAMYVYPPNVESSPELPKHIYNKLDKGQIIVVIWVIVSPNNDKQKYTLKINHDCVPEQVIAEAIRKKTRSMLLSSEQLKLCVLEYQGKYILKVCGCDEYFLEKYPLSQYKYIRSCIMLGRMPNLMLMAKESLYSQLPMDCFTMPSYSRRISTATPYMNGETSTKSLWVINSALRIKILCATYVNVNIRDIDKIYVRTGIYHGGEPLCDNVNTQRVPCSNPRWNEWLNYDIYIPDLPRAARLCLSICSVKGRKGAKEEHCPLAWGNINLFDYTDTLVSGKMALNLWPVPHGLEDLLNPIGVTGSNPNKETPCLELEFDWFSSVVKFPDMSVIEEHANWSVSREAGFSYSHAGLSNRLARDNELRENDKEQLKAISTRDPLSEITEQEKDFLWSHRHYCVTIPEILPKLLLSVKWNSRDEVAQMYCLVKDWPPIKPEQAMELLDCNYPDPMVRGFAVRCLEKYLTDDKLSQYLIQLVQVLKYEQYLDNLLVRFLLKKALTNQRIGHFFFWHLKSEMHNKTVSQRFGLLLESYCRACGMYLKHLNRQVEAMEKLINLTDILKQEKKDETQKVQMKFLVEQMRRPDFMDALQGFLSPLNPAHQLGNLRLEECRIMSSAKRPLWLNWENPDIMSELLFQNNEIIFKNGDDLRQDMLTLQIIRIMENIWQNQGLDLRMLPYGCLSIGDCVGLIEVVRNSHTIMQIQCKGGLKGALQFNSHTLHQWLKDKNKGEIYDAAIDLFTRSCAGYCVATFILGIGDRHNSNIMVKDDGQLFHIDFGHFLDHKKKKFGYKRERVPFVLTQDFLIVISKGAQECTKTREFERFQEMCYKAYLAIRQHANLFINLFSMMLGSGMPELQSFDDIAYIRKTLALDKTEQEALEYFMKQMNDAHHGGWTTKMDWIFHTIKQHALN
PI3K alpha, sequence (P27986 461-568 partner): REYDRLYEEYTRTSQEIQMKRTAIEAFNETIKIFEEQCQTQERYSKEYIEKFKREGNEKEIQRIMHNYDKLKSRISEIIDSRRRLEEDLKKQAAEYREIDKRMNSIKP

Take `COc1ncc(-c2cccc3nc([C@@H]4C[C@H](OC)CN4c4nc(N)nc(C)c4C#N)n(-c4ccccc4)c(=O)c23)cn1` [Example 12, 2-Amino-4-((2S,4S)-4-methoxy-2-(5-(2-methoxypyrimidin-5-yl)-4-oxo-3-phenyl-3,4-dihydroquinazolin-2-yl)pyrrolidin-1-yl)-6-methylpyrimidine-5-carbonitrile]: the IC50 on PI3K gamma was 210 nM; against PI3K alpha, 1200 nM.
`Cn1cc(-c2c(F)ccc3nc([C@@H]4CCCN4c4ncnc(N)c4C#N)n(-c4ccccc4)c(=O)c23)cn1` [Example 5, (S)-4-Amino-6-(2-(6-fluoro-5-(1-methyl-1H-pyrazol-4-yl)-4-oxo-3-phenyl-3,4-dihydroquinazolin-2-yl)pyrrolidin-1-yl)pyrimidine-5-carbonitrile]: the concentration for half-maximal inhibition (IC50) on PI3K gamma was found to be 85 nM; against PI3K alpha, 230 nM.
Turning to `COc1ccc(-c2cccc3nc([C@@H]4C[C@H](O)CN4c4nc(N)nc(C)c4C#N)n(-c4ccccc4)c(=O)c23)cn1` [Example 27, 2-Amino-4-((2S,4S)-4-hydroxy-2-(5-(6-methoxypyridin-3-yl)-4-oxo-3-phenyl-3,4-dihydroquinazolin-2-yl)pyrrolidin-1-yl)-6-methylpyrimidine-5-carbonitrile], the IC50 is 58 nM at PI3K gamma and 86 nM at PI3K alpha.
For the compound `Cc1nc(N)nc(N2C[C@@H](F)C[C@H]2c2nc3cccc(-c4cnn(C)c4)c3c(=O)n2-c2ccccc2)c1C#N` [Example 30, 2-Amino-4-((2S,4S)-4-fluoro-2-(5-(1-methyl-1H-pyrazol-4-yl)-4-oxo-3-phenyl-3,4-dihydroquinazolin-2-yl)pyrrolidin-1-yl)-6-methylpyrimidine-5-carbonitrile], the IC50 at PI3K gamma worked out at 24 nM; on PI3K alpha, 450 nM.
Take `Cn1cc(-c2c(F)ccc3nc([C@@H]4C[C@H](O)CN4c4ncnc(N)c4C#N)n(-c4ccccc4)c(=O)c23)cn1` [Example 8, 4-Amino-6-((2S,4S)-2-(6-fluoro-5-(1-methyl-1H-pyrazol-4-yl)-4-oxo-3-phenyl-3,4-dihydroquinazolin-2-yl)-4-hydroxypyrrolidin-1-yl) pyrimidine-5-carbonitrile]: the concentration for half-maximal inhibition (IC50) on PI3K gamma is 750 nM; at PI3K alpha, 1100 nM.
As for `Cc1ccccc1-n1c([C@@H]2CCCN2c2ncnc(N)c2C#N)nc2cccc(-c3cnn(C)c3)c2c1=O` [Example 14, (S)-4-Amino-6-(2-(5-(1-methyl-1H-pyrazol-4-yl)-4-oxo-3-(otolyl)-3,4-dihydroquinazolin-2-yl)pyrrolidin-1-yl)pyrimidine-5-carbonitrile], the IC50 on PI3K gamma turned out to be 330 nM; on PI3K alpha it was 920 nM.
Turning to `CO[C@H]1C[C@@H](c2nc3cccc(-c4cnn(C)c4)c3c(=O)n2-c2ccccc2)N(c2nc(N)nc(C)c2C#N)C1` [Example 10, 2-Amino-4-((2S,4S)-4-methoxy-2-(5-(1-methyl-1H-pyrazol-4-yl)-4-oxo-3-phenyl-3,4-dihydroquinazolin-2-yl)pyrrolidin-1-yl)-6-methylpyrimidine-5-carbonitrile], the IC50 on PI3K gamma came out at 38 nM; against PI3K alpha, 1300 nM.
